Results published in patent US20120171121A1, “Rosette Nanotubes as Drug Delivery Agents” (Brown University, priority 2011, published 2012).
Entries after “also recorded” stand apart in the source; their conditions may differ.

Assay: Solubility observations in D2O / water
Format: physicochemical
Experimental: The supernatants were characterized by DOSY NMR and UV-Vis. ^1H-NMR was used to observe the amount of drug loaded into the RNTs at various time points. All the NMR experiments were conducted on a Varian Direct Drive 600 MHz spectrometer with a dual broadband probe. UV-vis spectra were recorded on an Agilent 8453. After this series of spectral analyses were completed, CD3OD was evaporated using a stream of nitrogen and replaced with the same volume of deuterated water (D2O).
Each solution (3 mL) was placed in a 1 cm×1 cm cuvette for UV-Vis experiments. In another series of experiments the solutions were prepared at the same concentration in D2O and analyzed by UV-Vis spectroscopy.

Compound: C[C@@H]1C[C@H]2[C@@H]3CCC4=CC(=O)C=C[C@]4(C)[C@@]3(F)[C@@H](O)C[C@]2(C)[C@@]1(O)C(=O)CO [DEX, dexamethasone]
- solubility in water: insoluble; also recorded: precipitates in water
